Assay: Dissolution temperature of coupler in tricresyl phosphate and ethyl acetate
Format: physicochemical
Conditions: 1 g coupler, tricresyl phosphate of equal weight and ethyl acetate of three times the weight; temperature at which the coupler was completely dissolved
Excerpt: Structures of comparative couplers a to e are respectively shown below. [drawing 115] [drawing 116] [drawing 117] [drawing 118] [drawing 119]

Row | Dissolution Temperature [°C] | Compound
1 | 60 | CCC(C)(C)c1ccc(OCCCCNC(=O)c2nn3c(-c4cc(Cl)cc(Cl)c4)n[nH]c3c2Cl)c(C(C)(C)CC)c1 [Coupler b]
2 | 60 | CCC(C)(C)c1ccc(OCCCCNC(=O)C(NC(=O)c2nn3c(-c4ccc(Cl)c(Cl)c4)n[nH]c3c2Cl)C(C)C)c(C(C)(C)CC)c1 (centres unmarked) [Coupler d]

Source: patent publication EP1271240B1, “Silver halide color photographic material” (KONICA CORPORATION, priority 2001, dated 2003)
